Data reported in patent US10772847B1, “Combinational fendiline formulations and uses thereof” (UNIVERSITY OF SOUTH FLORIDA, priority 2016, dated 2020).

What was measured:
P-Aurora ABC = experiment: Fluorescent microscopy of p-Aurora ABC in CD18 cells; format: cell-based; conditions: about 24 hours of treatment, FIGS. 26A-26C
Method: FIGS. 26A-26C show fluorescent microscopic images of CD18 cells treated with fendiline or Tivantinib as compared to untreated after about 24 hours of treatment and staining with antibodies against p-Aurora ABC or a-tubulin and counterstained with Hoechst.

ADAM10 = conditions: shown recently (introduction); cited from earlier work
cancer cells = conditions: shown earlier (introduction); cited from earlier work

CC(NCCC(c1ccccc1)c1ccccc1)c1ccccc1 (stereo not drawn) [fendiline]
aurora ABC phosphorylation (P-Aurora ABC): inhibit
ADAM10 inhibition (ADAM10): inhibits
cytotoxicity in cancer cells (cancer cells): induces cytotoxicity
